Test results as given in ChEMBL document CHEMBL5523682, “The formyl peptide receptors FPR1 and FPR2 as targets for inflammatory disorders: recent advances in the development of small-molecule agonists” (Eur J Med Chem, 2024).
Where a SMILES comes first, the peptide text is derived from it. The star is where a group is joined. For = O=C*

Assays:
fMet-Leu-Phe receptor [1] = target: T1, fMet-Leu-Phe receptor (Homo sapiens, UniProt P21462); assay: Agonist activity at FPR1 (unknown origin) transfected in CHO cells by cAMP assay; format: functional, cell-based
T1 sequence (P21462 whole entry): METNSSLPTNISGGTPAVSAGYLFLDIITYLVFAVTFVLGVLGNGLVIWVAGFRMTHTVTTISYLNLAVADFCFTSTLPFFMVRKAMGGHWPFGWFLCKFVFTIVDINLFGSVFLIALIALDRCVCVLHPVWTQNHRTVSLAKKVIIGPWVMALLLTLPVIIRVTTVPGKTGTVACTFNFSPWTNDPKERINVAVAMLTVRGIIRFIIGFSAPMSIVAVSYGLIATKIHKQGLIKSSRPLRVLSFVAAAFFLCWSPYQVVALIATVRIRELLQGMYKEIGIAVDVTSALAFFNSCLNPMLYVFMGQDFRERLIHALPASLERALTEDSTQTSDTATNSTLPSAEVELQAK

[2] = target: T2, N-formyl peptide receptor 2 (Homo sapiens, UniProt P25090); assay: Agonist activity at FPR2 (unknown origin) transfected in CHO cells by cAMP assay; format: functional, cell-based
T2 sequence (P25090 whole entry): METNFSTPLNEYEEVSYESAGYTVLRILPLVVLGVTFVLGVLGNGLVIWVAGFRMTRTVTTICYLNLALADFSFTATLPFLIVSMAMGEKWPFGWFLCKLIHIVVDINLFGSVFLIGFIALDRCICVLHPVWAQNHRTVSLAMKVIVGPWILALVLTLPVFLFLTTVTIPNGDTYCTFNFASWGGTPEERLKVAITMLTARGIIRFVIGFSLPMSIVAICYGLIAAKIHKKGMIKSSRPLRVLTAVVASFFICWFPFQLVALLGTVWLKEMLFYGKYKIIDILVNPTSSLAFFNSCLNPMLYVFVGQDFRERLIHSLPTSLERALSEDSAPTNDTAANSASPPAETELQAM

fMet-Leu-Phe receptor [3] = target: T1, fMet-Leu-Phe receptor; assay: Agonist activity against human FPR1 expressed in HL-60 cells by Fluo4-AM dye based intracellular calcium flux assay; format: functional, cell-based
[4] = target: T2, N-formyl peptide receptor 2; assay: Agonist activity at human FPR2 expressed in HL-60 cells by Fluo4-AM dye based intracellular calcium flux assay; format: functional, cell-based
[5] = target: T2, N-formyl peptide receptor 2; assay: Binding affinity to human FPR2 expressed in CHO cells assessed as dissociation constant; format: cell-based
fMet-Leu-Phe receptor [6] = target: T3, fMet-Leu-Phe receptor (Mus musculus, UniProt P33766); assay: Binding affinity to mouse FPR1 expressed in CHO cells assessed as dissociation constant; format: cell-based
T3 sequence (P33766 whole entry): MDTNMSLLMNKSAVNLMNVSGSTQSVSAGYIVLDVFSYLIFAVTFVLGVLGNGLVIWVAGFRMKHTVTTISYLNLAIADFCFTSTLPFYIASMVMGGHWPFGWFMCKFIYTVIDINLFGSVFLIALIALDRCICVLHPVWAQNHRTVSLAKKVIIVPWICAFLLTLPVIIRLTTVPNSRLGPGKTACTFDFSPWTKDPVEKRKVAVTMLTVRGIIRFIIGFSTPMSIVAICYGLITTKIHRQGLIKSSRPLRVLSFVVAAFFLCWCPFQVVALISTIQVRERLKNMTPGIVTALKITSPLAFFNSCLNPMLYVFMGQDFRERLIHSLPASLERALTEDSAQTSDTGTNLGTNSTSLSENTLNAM

[7] = Oral bioavailability in human at 1 mg/kg; format: ADME, organism-based; conditions: in vivo
[8] = Metabolic stability in rat liver microsomes assessed as compound remaining after 30 mins incubation; format: ADME, Microsome; conditions: read-out: Stability
[9] = Permeability of compound in PBS buffer at pH 5.5 by UPLC-MS spectrometry based PAMPA assay; format: ADME; conditions: read-out: permeability
fMet-Leu-Phe receptor [10] = target: T1, fMet-Leu-Phe receptor; assay: Agonist activity at FPR1 (unknown origin) transfected in human HL60 cells assessed as calcium mobilization incubated for 30 mins and measured for 15 mins by fluorometry method; format: functional, cell-based, HL-60
[11] = target: T2, N-formyl peptide receptor 2; assay: Agonist activity at FPR2 (unknown origin) expressed in CHO cells assessed as Calcium mobilization incubated for 30 min by fluorometry method; format: functional, cell-based
fMet-Leu-Phe receptor [12] = target: T3, fMet-Leu-Phe receptor; assay: Agonist activity at mouse FPR1; format: functional
fMet-Leu-Phe receptor [13] = target: T1, fMet-Leu-Phe receptor; assay: Agonist activity at human FPR1; format: functional
[14] = target: T2, N-formyl peptide receptor 2; assay: Agonist activity at human FPR2; format: functional
[15] = target: T4, Formyl peptide receptor 2 (Mus musculus, UniProt O88536); assay: Agonist activity at mouse FPR2
T4 sequence (O88536 whole entry): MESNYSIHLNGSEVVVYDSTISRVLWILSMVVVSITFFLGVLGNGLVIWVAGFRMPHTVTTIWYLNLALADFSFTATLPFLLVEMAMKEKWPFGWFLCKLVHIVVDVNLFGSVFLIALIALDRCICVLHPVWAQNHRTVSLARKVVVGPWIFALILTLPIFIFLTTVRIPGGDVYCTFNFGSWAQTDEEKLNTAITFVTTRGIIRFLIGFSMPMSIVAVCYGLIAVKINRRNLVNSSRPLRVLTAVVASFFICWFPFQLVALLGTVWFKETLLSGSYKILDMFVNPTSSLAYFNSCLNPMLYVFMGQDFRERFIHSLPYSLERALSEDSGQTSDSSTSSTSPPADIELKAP

fMet-Leu-Phe receptor [16] = target: T1, fMet-Leu-Phe receptor; assay: Agonist activity at FPR1 (unknown origin) transfected in CHO cells assessed as increase in calcium mobilization by Fluo-4AM dye based assay; format: functional, cell-based
[17] = target: T2, N-formyl peptide receptor 2; assay: Agonist activity at FPR2 (unknown origin) transfected in CHO cells assessed as increase in calcium mobilization by Fluo-4AM dye based assay; format: functional, cell-based
[18] = Intrinsic clearance in rat liver microsomes; format: ADME, Microsome
[19] = Half life in rat liver microsomes measured upto 60 mins by LC-MS/MS analysis; format: ADME, Microsome; conditions: 1 h
[20] = target: T2, N-formyl peptide receptor 2; assay: Agonist activity at FPR2 (unknown origin) in HEK293 cells; format: functional, cell-based

## O=C(Nc1ccc(Br)cc1)[C@@H]1C2CCC([C@@H]1C(=O)O)C21CC1 (stereo partly drawn)
fMet-Leu-Phe receptor [1]
  EC50: 2200 nM
[2]
  EC50: 280 nM

## COc1cccc(Cc2cc(C)nn(CC(=S)Nc3ccccc3)c2=O)c1
fMet-Leu-Phe receptor [3]
  EC50: > 50000 nM
[4]
  EC50: > 50000 nM

## CCCCC[C@H](O)[C@H](O)/C=C/C=C/C=C\C=C\[C@@H](O)CCCC(=O)O
[5]
  Kd: 1.7 nM
fMet-Leu-Phe receptor [6]
  Kd: 1.5 nM

## O=C(NCc1ccc(Br)cc1F)[C@@H]1C2CCC([C@H]1C(=O)NC1CCNCC1)C21CC1 (stereo partly drawn)
[7]
  bioavailability: 0.3%

## N#Cc1ccc(C[C@@H](NC(=O)Nc2ccc(F)cc2)C(=O)NCC2(c3ccc(F)c(Cl)c3)CC2)cc1
[8]
  remaining at 0.5 h: 20%

## COc1cc(F)c([C@@H]2CNC(=O)[C@H]2Nc2cc(-c3ccc(Cl)cc3)no2)c(F)c1
fMet-Leu-Phe receptor [1]
  EC50: 470 nM
[2]
  EC50: 10 nM
[9]
  Papp: 1100 nm/s

## Ac-AMVSEFLKQAWIENEEQEYVVQTVK-OH
fMet-Leu-Phe receptor [10]
  EC50: 1400 nM
[11]
  EC50: 1800 nM

## CC[C@H](C)[C@H](NC(=O)[C@@H](NC(=O)[C@H](Cc1ccccc1)NC(=O)[C@H](CC(C)C)NC(=O)[C@H](CCSC)NC=O)[C@@H](C)CC)C(=O)O (For-MLFII-OH)
fMet-Leu-Phe receptor [12]
  EC50: 0.03 nM
fMet-Leu-Phe receptor [13]
  EC50: 1400 nM
[14]
  EC50: 3.8 nM
[15]
  EC50: 910 nM

## CC(C)C[C@H](NC(=O)CNC(=O)Nc1ccc(Br)cc1)C(=O)OC(C)(C)C
fMet-Leu-Phe receptor [16]
  EC50: 2300 nM
[17]
  EC50: 600 nM

## N#Cc1ccc(C[C@H](NC(=O)Nc2ccc(F)cc2)C(=O)NCC2(c3ccc(F)c(Cl)c3)CC2)cc1
[18]
  CLH: 15 µL/min/mg
[19]
  t1/2: 48 min

## O=C(NCc1ccc(Br)cc1F)[C@@H]1C2CCC([C@H]1C(=O)NC1CCNCC1F)C21CC1 (stereo partly drawn)
[7]
  bioavailability: 12%
[20]
  EC50: 2 nM
